The test system of assay [1] is rats following MCAO. Description: Iba1 immunostaining of microglia after MCAO. The class given is in vivo, rat. The following applies: 30 days after stroke; p>0.05. The method, then: MCAO surgeries were performed as described elsewhere (Vendrame M, Cassady C J, Newcomb J, Butler T, Pennypacker K R, Zigova T, et al. Stroke. 2004; 35:2390-2395). Briefly, rats were anesthetized with isoflurane, and the right common carotid and external carotid arteries were exposed using blunt dissection techniques. The vagus nerve was separated from common carotid artery and the external carotid artery was ligated proximally, and transected near the bifurcation. An embolus 40 mm in length (4.0 siliconized monofilament) was inserted into the external carotid artery and fed distally into the origin of the middle cerebral artery (˜25 mm from insertion) through the internal carotid artery. Blood samples were taken and analyzed using an i-STAT handheld analyzer for hemoglobin, hematocrit, ionized calcium, glucose, sodium, potassium, pH, pCO2, HCO3, TCO2, base excess, pO2, and O2. Cerebral blood flow was recorded using a Laser Doppler Monitor (Moor Instruments) to verify occlusion. […]
Anti-Iba1 (1:500; Wako 019-19741) immunocytochemistry was used for the specific identification of microglia. […] Iba-1 positive cells were quantified (n=12) as previously detailed by Smirkin et al. (Smirkin, Matsumoto et al. 2010) with little modification. […] Total number of Iba-1 positive cells were counted manually by two observer using ImagePro plus software.

For assay [2], the system named is rats following MCAO. Description: Battery of behavioral tests after MCAO (corner, grip, rotorod, step, cylinder). The assay is classed as in vivo, rat. The following applies: 30 days after MCAO. The procedure:
After surgery, animals were tested was performed once before surgery and 30 days post-surgery for motor coordination and behavior. All behavioral data are reported as mean+sem.
Rotorod test, which measures motor coordination, was conducted using Omni-rotor Rotorod (Omnitech, Inc). Animals were trained on the accelerating rotorod apparatus for 3 consecutive days before times were collected. Animals were placed on the revolving rod and instrument was set to accelerate to a maximum speed of 40 rpm over 180 seconds. Latency to fall (in seconds) was recorded. This test was performed in triplicate once per day for 3 days.
Rats were held tightly with one forelimb placed on a hard flat table top and then pulled for a length of 1 meter in the direction of the placed forelimb at constant velocity. The test was repeated with the opposite forelimb. This was repeated three times for each forelimb and the percent of contralateral forelimb paw was obtained. The bias was standardized as the absolute number of steps with the contralateral paw minus 100.
The animals were placed in a transparent cylinder about 20 cm in diameter and 30 cm in height with an open top. The number times each paw was placed on the sides of the cylinder was counted a5 minute period. The test was videotaped and a mirror was placed behind the cylinder allowing the experimenter to see the placement of paws when the animal was facing away from the camera.
A 30 degree angle was formed using the edges of two plexiglass boards. The animals were placed halfway into the corner facing the corner and the total number of left and right turns was recorded. A total of 10 trials were conducted and videotaped. A non-lesioned animal turned randomly toward the left or right, while a lesioned animal preferentially turned toward the non-impaired (left) side. Results were reported as the percentage of ipsilateral (injury site, right side) versus contralateral turns.
Motor deficits were assessed using a grip strength meter (Bioseb, # BIO-GS3). […] Grip strength was recorded in Newtons (N). […]

Take `Cl.N=C(Nc1cccc2ccccc12)Nc1cccc2ccccc12` [NAGH, N,N′-di-1-Naphthylguanidine hydrochloride]: the “Activated microglia (Iba1 positive cells) in peri-infarct and ischemic core vs DMSO” value in the assay with rats following MCAO [1] is listed as “not statistically significant”. Further, the “Overall behavioral data vs vehicle, all tests except EBST” value in the assay with rats following MCAO [2] (NAGH 0.86 mg/kg s.c. x3) is “no significant differences”. Further, the “Changes in asymmetry on the cylinder test” value in the assay with rats following MCAO [2] (NAGH) was “failed to gain significance”.

Values taken from patent publication US9636311B2, “N,N′-di-1 naphthylguanidine HCl (NAGH) and N,N′-di-p-nitrophenylguanidine HCl (NAD) treatment for stroke at delayed timepoints” (University of South Florida, priority 2012, dated 2017).
